In assay [1] the target is ER Alpha-LBD (GST) (Homo sapiens (Human), UniProt P03372). Kind of assay: LanthaScreen TR-FRET ER Alpha Competitive Binding Assay. The note with it: Fluormone ES2 Green tracer displacement; for IC50: read-out: ERα IC50. How it is done: e. Additional cell proliferation assays: Other cancer cell lines are tested in a cell proliferation assay. For example, LnCaP, PC-3, MCF-7, HCC1428, BT474, HCT-116, SK-OV-3 or OVCAR3 cancer cells are tested. Cells are cultured in medium recommended by the supplier (e.g., ATCC or JCRB Cell Bank), at 37° C. in a 5% CO2 environment. For the proliferation assay, cells are plated in the growth medium in 96 well plates. Seeding density is adjusted according to the cell type. 24 hr later, cells are treated, in triplicate or quadruplicate, with test articles prepared in a range of concentrations by series dilution of DMSO stock solutions in growth medium, and typically incubated for three to seven days, with test article-containing medium replaced after three or four days. The number of viable cells is measured using CellTiter Glo assay (CTG, Promega, Madison, WI) or similar. Cell viability data are plotted using GraphPad Prism (GraphPad Software, Inc., San Diego, CA). In addition, a nonlinear regression model with a sigmoidal dose response and variable slope within GraphPad Prism is used to calculate the IC50 value of individual test articles. Similarly, HEK-293 and HeLa calls can also be tested by methods known in the art. f. Nuclear translocation: LNCaP cells are plated on coverslips in 24 well plates in growth medium. Twenty-four hours after plating, medium is changed to RPMI+1% csFBS and the cells are maintained in this medium for two days. Medium is replaced again and the cells are treated. Cells are fixed 4 hours after treatment and the AR immunostained using AR N20 antibody (Santa Cruz Biotechnology, Santa Cruz, CA). Nucleus is stained with DAPI. Cells are imaged with a confocal microscope. g. ER binding assay: ERα binding was assessed by the LanthaScreen® TR-FRET ER Alpha Competitive Binding Assay at Thermo Fisher. In this assay, a terbium-labeled anti-GST antibody was used to indirectly label GST-tagged ER Alpha-ligand binding domain (LBD) by binding to its GST tag. Competitive binding to the ER Alpha-LBD (GST) was detected by a test compound's ability to displace a fluorescent ligand (Fluormone™ ES2 Green tracer) from the ER Alpha-LBD (GST), which results in a loss of FRET signal between the Tb-anti-GST antibody and the tracer. When running the assay, Fluormone™ ES2 Green tracer was added to ligand test compounds or solvent controls followed by addition of a mixture of the ER Alpha-LBD (GST) and terbium anti-GST antibody. After an incubation period at room temperature, the TR-FRET ratio of 520:495 emissions were calculated and used to determine the IC50 from a dose response curve of the compound. ER and PR functional assays: COS cells are transfected with 25 ng rat progesterone receptor (PR) and 250 ng GRE-LUC or 50 ng human estrogen receptor a (ER) and 250 ng ERE-LUC. Cells are also transfected with 10 ng CMV-renilla LUC in OptiMEM medium using lipofectamine transfection reagent. Twenty-four hours after transfection medium is changed to DME+5% csFBS w/o and treated with compounds in the presence of 0.1 nM progesterone for PR and estradiol for ER. Twenty four hours after treatment, cells are harvested and luciferase assay is performed using dual luciferase assay kit. The firefly values are normalized to renilla luciferase values and represented as a ratio. i. Evaluation of test compound in mouse xenograft model: To examine the in vivo antitumor activity of test compound, tumor growth experiments are performed in a cell line xenograft model. Male NOD SCID Gamma (NSG) mice are housed as five animals per cage and are allowed free access to water and commercial rodent chow. 22RV1 cells (grown in RPMI+10% FBS) mixed with 50% matrigel basement membrane are implanted subcutaneously in castrated mice. Alternatively, an antiandrogen resistant cell line other than 22RV1, such as MR49F or VCaP, is used. Once the tumors reach 200-500 mm^3, the animals are randomized and treated intraperitoneally with vehicle (DMSO:PEG-300:corn oil 10:30:60 ratio) or test compound. […]
A general note: In TR-FRET formats the signal depends on donor and acceptor labels being close together.

Assay [2] addresses Human recombinant PARP1 (Homo sapiens (Human), UniProt P09874). Nature of the assay: RBC HotSpot PARP1 radioisotope-based filter binding assay. The note with it: read-out: PARP1 IC50; 2.5 nM PARP1, histone H4, 10 μM 32P-NAD+.
Experimental: (§3) RBC HotSpot Poly(ADP-ribose) Polymerases 1 (PARP1) and Poly(ADP-ribose) Polymerases 2 (PARP2) Assays: The assay was conducted at Reaction Biology Corporation (RBC; Malvern, PA). The assay principle is radioisotope-based filter binding assay where incorporation of radioisotope-labeled NAD^+ into the substrate captured on filter is detected after washout free NAD^+. Data were analyzed using Excel and GraphPad Prism software for IC50 curve fits. Each assay was conducted with PJ34 as a positive control. PARP1 assay: Human recombinant PARP1 at a final concentration of 2.5 nM was combined with histone H4 (20 μM) and test articles at various concentrations in reaction buffer (50 mM Tris-HCL, pH 8.0, 50 mM NaCl, 10 mM MgCl2, 1 mM DTT, 1% DMSO, and 20 μg/mL activated DNA). The solution was inoculated for 20 min at room temperature and the reaction initiated by adding [adenylate-^32P]-Nicotinamide Adenine Dinucleotide, ^32P-NAD^+ at a final concentration of 10 μM. After incubation for 2 hrs at room temperature, the reaction mixture was filtered and washed with 0.75% phosphoric acid for radioactivity detection. • ii. PARP2 assay: Human recombinant PARP2 at a final concentration of 2.5 nM was combined with histone H3 (20 μM) and test articles at various concentrations in reaction buffer (50 mM Tris-HCL, pH 8.0, 50 mM NaCl, 10 mM MgCl2, 1 mM DTT, 1% DMSO, and 20 μg/mL activated DNA). The solution was inoculated for 20 min at room temperature and the reaction was initiated by adding [adenylate-^32P]-Nicotinamide Adenine Dinucleotide, ^32P-NAD^+ at a final concentration of 10 μM. After incubation for 2 hrs at room temperature, the reaction mixture was filtered and washed with 0.75% phosphoric acid for radioactivity detection. b. AR binding assay: AR in LNCaP cytosol was used for determining the binding affinity of test articles and the reference compound—progesterone (Sigma, Cat: E2785, St. Louis, MO). IC50s were determined using 8 concentrations/compound. Cytosol was plated at 200 μg/well (100 μL) into a 96-well conical polypropylene plate (Agilent, Cat: 5042-1385, Santa Clara, CA) and mixed with 3 μL of test compound. After adding 100 μL of ^3H-methyltrienolone (PerkinElmer, Cat: NET590250UC, San Jose, CA), the plate was sealed and shaken at 300 rpm at 4° C. for 24 hours. Post incubation, 100 μL of radioligand adsorption buffer containing 10 mM Tris-HCl, pH 7.4; 1.5 mM EDTA; 1 mM DTT; 0.25% charcoal; 0.0025% dextran was added to individual well. Plate was shaken for 15 min at 4° C. followed by centrifugation at 3000 rpm for 30 min at 4° C. 150 μL of supernatant was transferred into scint-tube (PerkinElmer, Cat: 6000192) and mixed with 2 mL of Ultima Gold Cocktail (PerkinElmer, Cat: 6013329). Radioactivity was counted using a TriCarb 2910 TR scintillation counter (PerkinElmer). Inhibition of the radioactivity by test articles were calculated using the equation below: % Inhibition=(1−(Assay well-Average_LC)/(Average_HC-Average_LC))×100%. IC50 values were calculated and graphed using the model “log(inhibitor) vs. response—Variable slope” included in GraphPad Prism 5 (San Diego, CA). […] Ki=IC50/(1+[L]/Kd) c.
Assay [3] deals with Human recombinant PARP2 (Homo sapiens (Human), UniProt Q9UGN5). Nature of the assay: RBC HotSpot PARP2 radioisotope-based filter binding assay. The note with it: read-out: PARP2 IC50; 2.5 nM PARP2, histone H3, 10 μM 32P-NAD+.
Experimental: as §3
Assay [4] has as its system 22RV1 cells. Nature of the assay: Cell proliferation assay, CellTiter Glo. To be noted: Homo sapiens, 22Rv1, 72 h; cell growth inhibition, three days of treatment. The class given is cell-based. How it is done: (§1) a. […] IC50s were determined using 8 concentrations/compound. […] Ki=IC50/(1+[L]/Kd) c.
(§2) Cells were plated at varying density in the respective growth medium in 96 well plates. 24 hr later, cells were treated, in triplicate or quadruplicate, with test articles prepared in a range of concentrations by series dilution of DMSO stock solutions in growth medium and incubated for three to seven days. The number of viable 22RV1 and HT-29 cells was measured using CellTiter Glo assay (CTG, Promega, Madison, WI) after three days of treatment. Cell viability data were plotted using GraphPad Prism (GraphPad Software, Inc., San Diego, CA). In addition, a nonlinear regression model with a sigmoidal dose response and variable slope within GraphPad Prism was used to calculate the IC50 value of individual test articles.
On the technique in general: Cellular ATP, detected with luciferase, serves as a proxy for viable cell number.

Assay [5] deals with HT-29 cells. Nature of the assay: Cell proliferation assay, CellTiter Glo. To be noted: Homo sapiens, HT-29, 72 h; cell growth inhibition, three days of treatment. The class given is cell-based. How it is done:
as §1, §2

Bounds are passed on as bounds.

Chain of ER Alpha-LBD (GST) (P03372 311-547): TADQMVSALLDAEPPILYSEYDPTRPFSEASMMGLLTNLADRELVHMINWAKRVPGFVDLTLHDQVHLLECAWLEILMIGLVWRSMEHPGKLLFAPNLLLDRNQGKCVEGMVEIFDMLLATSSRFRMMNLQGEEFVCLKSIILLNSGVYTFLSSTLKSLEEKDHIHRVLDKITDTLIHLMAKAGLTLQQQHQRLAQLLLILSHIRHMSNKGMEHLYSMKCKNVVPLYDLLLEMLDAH
Chain of Human recombinant PARP2 (Q9UGN5 whole entry): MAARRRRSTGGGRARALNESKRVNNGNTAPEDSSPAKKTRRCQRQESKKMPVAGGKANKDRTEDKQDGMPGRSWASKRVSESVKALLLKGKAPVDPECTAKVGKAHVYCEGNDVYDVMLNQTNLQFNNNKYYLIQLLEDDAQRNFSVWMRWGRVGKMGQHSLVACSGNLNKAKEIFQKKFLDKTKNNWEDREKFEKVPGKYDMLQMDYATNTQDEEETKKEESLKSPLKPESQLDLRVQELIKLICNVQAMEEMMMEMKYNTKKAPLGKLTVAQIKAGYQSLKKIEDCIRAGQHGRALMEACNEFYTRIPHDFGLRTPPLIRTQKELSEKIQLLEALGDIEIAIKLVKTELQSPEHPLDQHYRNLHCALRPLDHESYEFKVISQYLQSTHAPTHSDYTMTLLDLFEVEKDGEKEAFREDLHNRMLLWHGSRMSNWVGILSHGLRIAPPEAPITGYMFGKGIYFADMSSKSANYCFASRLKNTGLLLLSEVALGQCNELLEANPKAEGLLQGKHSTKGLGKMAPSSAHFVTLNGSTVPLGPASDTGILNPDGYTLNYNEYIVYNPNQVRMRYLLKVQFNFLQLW
Chain of Human recombinant PARP1 (P09874 whole entry): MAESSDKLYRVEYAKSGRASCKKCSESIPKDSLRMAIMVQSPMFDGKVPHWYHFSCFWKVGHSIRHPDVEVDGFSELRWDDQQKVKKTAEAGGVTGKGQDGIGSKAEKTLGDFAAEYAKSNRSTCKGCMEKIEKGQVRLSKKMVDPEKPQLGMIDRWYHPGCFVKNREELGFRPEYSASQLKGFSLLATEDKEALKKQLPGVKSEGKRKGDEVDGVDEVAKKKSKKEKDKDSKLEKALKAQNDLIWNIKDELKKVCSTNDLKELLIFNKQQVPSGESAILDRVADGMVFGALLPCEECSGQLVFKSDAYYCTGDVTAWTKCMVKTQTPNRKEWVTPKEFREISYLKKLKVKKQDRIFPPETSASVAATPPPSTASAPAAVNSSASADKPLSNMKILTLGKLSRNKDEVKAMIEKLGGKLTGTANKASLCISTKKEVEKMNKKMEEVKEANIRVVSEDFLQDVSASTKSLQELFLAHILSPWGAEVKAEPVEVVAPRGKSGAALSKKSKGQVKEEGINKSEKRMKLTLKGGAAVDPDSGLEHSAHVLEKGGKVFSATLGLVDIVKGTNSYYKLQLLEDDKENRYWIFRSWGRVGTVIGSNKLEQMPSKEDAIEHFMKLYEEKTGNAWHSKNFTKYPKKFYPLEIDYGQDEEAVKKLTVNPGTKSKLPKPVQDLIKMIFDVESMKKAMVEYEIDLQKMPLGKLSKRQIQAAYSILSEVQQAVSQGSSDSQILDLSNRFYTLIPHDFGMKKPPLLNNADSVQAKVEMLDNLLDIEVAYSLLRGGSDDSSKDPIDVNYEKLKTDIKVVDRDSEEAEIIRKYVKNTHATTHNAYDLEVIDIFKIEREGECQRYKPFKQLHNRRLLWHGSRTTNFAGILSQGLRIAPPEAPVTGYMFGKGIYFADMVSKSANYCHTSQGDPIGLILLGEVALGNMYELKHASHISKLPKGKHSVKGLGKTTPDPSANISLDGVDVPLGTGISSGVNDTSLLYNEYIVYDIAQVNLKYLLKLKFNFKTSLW

Consider `CC/C(=C(/c1ccc(OCCCCCC(=O)N2CCN(C(=O)c3cc(Cc4n[nH]c(=O)c5ccccc45)ccc3F)CC2)cc1)c1ccc2[nH]ncc2c1)c1ccc(Cl)cc1F` [Compound 2.49, (E)-4-(3-(4-(6-(4-(2-(4-chloro-2-fluorophenyl)-1-(1H-indazol-5-yl)but-1-en-1-yl)phenoxy)hexanoyl)piperazine-1-carbonyl)-4-fluorobenzyl)phthalazin-1(2H)-one], for which the half-maximal inhibitory concentration (IC50) – broadly, the point on the concentration scale where inhibition reaches its midpoint – was 4.4 nM in assay [1], 204 nM in assay [2] and 9 nM in assay [3].

For the compound `CC/C(=C(/c1ccc(OCCCOCCN2CCN(C(=O)c3cc(Cc4n[nH]c(=O)c5ccccc45)ccc3F)CC2)cc1)c1ccc2[nH]ncc2c1)c1ccc(Cl)cc1F` [Compound 2.54, (E)-4-(3-(4-(2-(3-(4-(2-(4-chloro-2-fluorophenyl)-1-(1H-indazol-5-yl)but-1-enyl)phenoxy)propoxy)ethyl)piperazine-1-carbonyl)-4-fluorobenzyl)phthalazin-1(2H)-one], the IC50 in assay [1] worked out at 64.1 nM; in assay [2], 40 nM; in assay [3], 5 nM. In addition, the inhibition constant (Ki) (as a rule, the equilibrium dissociation constant of an inhibitor or competing ligand from its target) in assay [1] (read-out: ERα Ki) stood at 34.5 nM.

On to `CC1(C)C(=O)N(c2ccc(C#N)c(C(F)(F)F)c2)C(=S)N1C1CCN(C(=O)c2cc(Cc3n[nH]c(=O)c4ccccc34)ccc2F)CC1` [Compound 1.3, 4-(3-(1-(2-fluoro-5-((4-oxo-3,4-dihydrophthalazin-1-yl)methyl)benzoyl)piperidin-4-yl)-4,4-dimethyl-5-oxo-2-thioxoimidazolidin-1-yl)-2-(trifluoromethyl)benzonitrile], for which the figures for the 50% inhibitory concentration (IC50) in assay [2] and in assay [3] were 3 nM and 0.6 nM, respectively.

Consider `C[C@H]1Cc2c([nH]c3ccccc23)[C@H](c2c(F)cc(OCCN3CCN(C(=O)c4cc(Cc5n[nH]c(=O)c6ccccc56)ccc4F)CC3)cc2F)N1CC(C)(C)F` (stereo in doubt) [Compound 2.51, 4-(3-(4-(2-(3,5-difluoro-4-((1S,3S)-2-(2-fluoro-2-methylpropyl)-3-methyl-2,3,4,9-tetrahydro-1H-pyrido[3,4-b]indol-1-yl)phenoxy)ethyl)piperazine-1-carbonyl)-4-fluorobenzyl)phthalazin-1(2H)-one], for which the IC50 in assay [1] came to 44 nM; in assay [2] it was 28 nM; in assay [3], 4 nM.

Regarding `Cn1ncnc1[C@@H]1c2n[nH]c(=O)c3cc(F)cc(c23)N[C@H]1c1ccc(N2C(=S)N(c3ccc(C#N)c(C(F)(F)F)c3)C(=O)C2(C)C)cc1` [Compound 1.2b, 4-(3-(4-((8R,9S)-5-fluoro-9-(1-methyl-1H-1,2,4-triazol-5-yl)-3-oxo-3,7,8,9-tetrahydro-2H-pyrido[4,3,2-de]phthalazin-8-yl)phenyl)-4,4-dimethyl-5-oxo-2-thioxoimidazolidin-1-yl)-2-(trifluoromethyl)benzonitrile], the values for the IC50 in assay [4], in assay [5] and in assay [3] were above 10000 nM, above 10000 nM and 20 nM, respectively.

For the compound `CC/C(=C(/c1ccc(OCCCOCC(=O)N2CCN(C(=O)c3cc(Cc4n[nH]c(=O)c5ccccc45)ccc3F)CC2)cc1)c1ccc2[nH]ncc2c1)c1ccc(Cl)cc1F` [Compound 2.53, (E)-4-(3-(4-(2-(3-(4-(2-(4-chloro-2-fluorophenyl)-1-(1H-indazol-5-yl)but-1-enyl)phenoxy)propoxy)acetyl)piperazine-1-carbonyl)-4-fluorobenzyl)phthalazin-1(2H)-one], the half-inhibitory concentration (IC50) in assay [1] worked out at 3.4 nM; in assay [2], 95 nM; in assay [3] it was 6 nM.

Turning to `Cn1ncnc1[C@H]1c2n[nH]c(=O)c3cc(F)cc(c23)N[C@@H]1c1ccc(OC[C@](C)(O)C(=O)Nc2ccc(C#N)c(C(F)(F)F)c2)cc1` [Compound 1.1a, (S)—N-(4-cyano-3-(trifluoromethyl)phenyl)-3-(4-((8S,9R)-5-fluoro-9-(1-methyl-1H-1,2,4-triazol-5-yl)-3-oxo-3,7,8,9-tetrahydro-2H-pyrido[4,3,2-de]phthalazin-8-yl)phenoxy)-2-hydroxy-2-methylpropanamide], the IC50 in assay [4] was above 10000 nM; in assay [5] it was above 10000 nM; in assay [2], above 1000 nM; in assay [3], above 1000 nM.

`CC/C(=C(/c1ccc(OCCCCCCN2CCN(C(=O)c3cc(Cc4n[nH]c(=O)c5ccccc45)ccc3F)CC2)cc1)c1ccc2[nH]ncc2c1)c1ccc(Cl)cc1F` [Compound 2.52, (E)-4-(3-(4-(6-(4-(2-(4-chloro-2-fluorophenyl)-1-(1H-indazol-5-yl)but-1-enyl)phenoxy)hexyl)piperazine-1-carbonyl)-4-fluorobenzyl)phthalazin-1(2H)-one]: the 50% inhibitory concentration (IC50) was determined as 5.3 nM in assay [1], 187 nM in assay [2] and 29 nM in assay [3].

For `C[C@@H]1Cc2c([nH]c3ccccc23)[C@@H](c2c(F)cc(OCCCCCC(=O)N3CCN(C(=O)c4cc(Cc5n[nH]c(=O)c6ccccc56)ccc4F)CC3)cc2F)N1CC(C)(C)F` [Compound 2.50, 4-(3-(4-(6-(3,5-difluoro-4-((1R,3R)-2-(2-fluoro-2-methylpropyl)-3-methyl-2,3,4,9-tetrahydro-1H-pyrido[3,4-b]indol-1-yl)phenoxy)hexanoyl)piperazine-1-carbonyl)-4-fluorobenzyl)phthalazin-1(2H)-one], the results for the IC50 in assay [1], in assay [2] and in assay [3] were 5.7 nM, 21 nM and 3 nM, respectively.

Consider `Cn1ncnc1[C@@H]1c2n[nH]c(=O)c3cc(F)cc(c23)N[C@H]1c1ccc(OC[C@](C)(O)C(=O)Nc2ccc(C#N)c(C(F)(F)F)c2)cc1` [Compound 1.1b, (S)—N-(4-cyano-3-(trifluoromethyl)phenyl)-3-(4-((8R,9S)-5-fluoro-9-(1-methyl-1H-1,2,4-triazol-5-yl)-3-oxo-3,7,8,9-tetrahydro-2H-pyrido[4,3,2-de]phthalazin-8-yl)phenoxy)-2-hydroxy-2-methylpropanamide], for which the concentration for half-maximal inhibition (IC50) is above 10000 nM in assay [4], above 10000 nM in assay [5], 60 nM in assay [2] and 30 nM in assay [3].
